In patent publication US12252524B2, “GIP/GLP1 co-agonist compounds” (Eli Lilly and Company, priority 2018, dated 2025):
Numbered stars: 1 amine (or outer) side, 2 acyl side, 3 side chain; on linkers, the order of the positions; unused ones are H or OH. Square brackets hold non-standard residues; d marks the D form. Side chains are listed from the residue outwards. Peptide text beside a SMILES is read from it. * marks the point of attachment. C20 diacid = O=C(O)CCCCCCCCCCCCCCCCCCC(=O)*; γGlu = O=C(O)[C@H](CCC(=O)[*:2])N[*:1]; αMeL = CC(C)C[C@](C)(N)C(=O)O; αMeK = C[C@](N)(CCCCN)C(=O)O; AEEA = NCCOCCOCC(=O)O; Aib = CC(C)(N)C(=O)O

How the values were obtained:
[1] = target: human GLP-1 receptor (GLP-1R) (Homo sapiens, UniProt P43220); experiment: cAMP pharmacological functional assay in presence of casein, hGLP-1R; assay type: cell-based; conditions: HEK293 cells expressing hGLP-1R, 0.1% Casein, geometric mean; read-out: hGLP1R cAMP Rel EC50 nM (SEM, n)
Chain of human GLP-1 receptor (GLP-1R) (P43220 24-463): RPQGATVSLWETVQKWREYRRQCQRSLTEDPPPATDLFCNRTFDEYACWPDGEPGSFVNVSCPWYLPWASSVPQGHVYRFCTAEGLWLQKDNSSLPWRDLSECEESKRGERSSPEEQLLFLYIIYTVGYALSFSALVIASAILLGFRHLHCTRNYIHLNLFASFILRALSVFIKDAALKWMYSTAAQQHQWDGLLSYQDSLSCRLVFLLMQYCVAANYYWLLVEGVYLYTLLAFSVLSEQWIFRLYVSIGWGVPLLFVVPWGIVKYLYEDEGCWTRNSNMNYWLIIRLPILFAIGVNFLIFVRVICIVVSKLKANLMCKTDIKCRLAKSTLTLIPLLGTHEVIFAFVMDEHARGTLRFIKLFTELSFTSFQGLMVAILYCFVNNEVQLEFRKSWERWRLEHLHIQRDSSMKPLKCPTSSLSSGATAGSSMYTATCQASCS

human Gcg receptor = target: T1, human Gcg receptor (Homo sapiens, UniProt P47871); experiment: [125I]-Glucagon binding (SPA), human Gcg receptor; conditions: read-out: hGLcgR Ki, nM (SEM, n)
T1 construct: expressed in transfected cells; crude membranes
T1 sequence (P47871 26-477): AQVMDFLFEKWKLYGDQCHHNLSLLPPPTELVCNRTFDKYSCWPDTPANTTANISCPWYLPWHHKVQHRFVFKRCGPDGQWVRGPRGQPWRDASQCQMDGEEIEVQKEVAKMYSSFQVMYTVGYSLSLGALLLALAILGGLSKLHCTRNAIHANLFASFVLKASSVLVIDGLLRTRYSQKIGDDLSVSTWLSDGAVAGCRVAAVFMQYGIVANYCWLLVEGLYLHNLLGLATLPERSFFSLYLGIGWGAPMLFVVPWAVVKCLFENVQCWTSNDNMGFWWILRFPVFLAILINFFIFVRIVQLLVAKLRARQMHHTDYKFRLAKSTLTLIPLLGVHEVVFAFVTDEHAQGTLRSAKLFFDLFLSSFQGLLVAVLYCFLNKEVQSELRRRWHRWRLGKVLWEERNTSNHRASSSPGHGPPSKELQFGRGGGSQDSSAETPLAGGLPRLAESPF
Procedure, shortened: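 Crude membranes from cells expressing the receptor, prepared by hypotonic lysis in 50 mM Tris HCl pH 7.5 with protease inhibitors, homogenization and differential centrifugation, were used in a WGA-bead SPA. Binding buffer: 25 mM HEPES pH 7.4, 2.5 mM CaCl2, 1 mM MgCl2, bacitracin, Tween-20.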

human GIP receptor = target: T2, human GIP receptor (Homo sapiens, UniProt P48546); experiment: [125I]-GIP binding (SPA), human GIP receptor; conditions: read-out: hGIPR Ki, nM (SEM, n)
T2 construct: expressed in transfected cells; crude membranes
T2 sequence (P48546 22-466): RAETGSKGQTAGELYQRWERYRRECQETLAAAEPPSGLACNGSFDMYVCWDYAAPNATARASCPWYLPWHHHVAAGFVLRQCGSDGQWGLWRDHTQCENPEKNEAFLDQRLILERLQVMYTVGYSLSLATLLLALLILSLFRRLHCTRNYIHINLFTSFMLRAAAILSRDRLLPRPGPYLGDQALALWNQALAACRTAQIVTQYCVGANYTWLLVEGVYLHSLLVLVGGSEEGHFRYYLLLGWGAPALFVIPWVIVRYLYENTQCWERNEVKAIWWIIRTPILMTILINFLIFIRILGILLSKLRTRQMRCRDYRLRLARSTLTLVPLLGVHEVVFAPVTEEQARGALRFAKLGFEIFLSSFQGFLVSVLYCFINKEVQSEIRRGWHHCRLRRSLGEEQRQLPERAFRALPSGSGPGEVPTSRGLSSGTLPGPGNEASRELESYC

human GLP-1R = human GLP-1R (Homo sapiens, UniProt P43220); experiment: [125I]-GLP-1 binding (SPA), human GLP-1 receptor; design: expressed in transfected cells; crude membranes; conditions: read-out: hGLP1R Ki, (nM) (SEM, n)
Chain of human GLP-1R (P43220 24-463): as the sequence (P43220 24-463) above
Procedure, shortened: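 Membranes: hypotonic lysis (50 mM Tris HCl, pH 7.5, protease inhibitors), Potter-Elvehjem homogenization, high-speed pellet (35000×g 1 h or 25000×g 30 min, 4° C.). Buffer: 25 mM HEPES pH 7.4, 2.5 mM CaCl2, 1 mM MgCl2. Four-parameter IC50 fit; Ki as geometric mean ± SEM.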

[2] = target: T3, gastric inhibitory peptide receptor (GIPR) (Homo sapiens, UniProt P48546); experiment: cAMP pharmacological functional assay in presence of casein, hGIPR; assay type: cell-based; conditions: HEK293 cells expressing hGIPR, 0.1% Casein, geometric mean; read-out: hGIPR cAMP Rel EC50 nM (SEM, n)
T3 sequence (P48546 22-466): T2 sequence (P48546 22-466)

Compound | EC50 [1] [nM] | Ki (human Gcg receptor) [nM] | Ki (human GIP receptor) [nM] | Ki (human GLP-1R) [nM] | EC50 [2] [nM]
CC[C@H](C)[C@H](NC(=O)[C@H](Cc1ccccc1)NC(=O)[C@H](C)NC(=O)[C@](C)(CCCCN)NC(=O)[C@H](CCC(N)=O)NC(=O)[C@H](C)NC(=O)[C@H](CCCCNC(=O)COCCOCCNC(=O)COCCOCCNC(=O)CC[C@H](NC(=O)CCCCCCCCCCCCCCCCCCC(=O)O)C(=O)O)NC(=O)[C@H](CCC(=O)O)NC(=O)[C@H](CC(=O)O)NC(=O)[C@H](CC(C)C)NC(=O)[C@](C)(CC(C)C)NC(=O)[C@@H](NC(=O)[C@H](CO)NC(=O)[C@H](Cc1ccc(O)cc1)NC(=O)[C@H](CC(=O)O)NC(=O)[C@H](CO)NC(=O)[C@@H](NC(=O)[C@H](Cc1ccccc1)NC(=O)[C@@H](NC(=O)CNC(=O)[C@H](CCC(=O)O)NC(=O)C(C)(C)NC(=O)[C@@H](N)Cc1ccc(O)cc1)[C@@H](C)O)[C@@H](C)O)[C@@H](C)CC)C(=O)N[C@@H](CCC(=O)O)C(=O)N[C@@H](Cc1ccc(O)cc1)C(=O)N[C@@H](CC(C)C)C(=O)N[C@@H](CC(C)C)C(=O)N[C@@H](CCC(=O)O)C(=O)NCC(=O)NCC(=O)N1CCC[C@H]1C(=O)N[C@@H](CO)C(=O)N[C@@H](CO)C(=O)NCC(=O)N[C@@H](C)C(=O)N1CCC[C@H]1C(=O)N1CCC[C@H]1C(=O)N1CCC[C@H]1C(=O)N[C@@H](CO)C(N)=O [Example 21] (H-Y[Aib]EGTFTSDYSI[αMeL]LDEK([AEEA-AEEA-γGlu-C20 diacid])AQ[αMeK]AFIEYLLEGGPSSGAPPPS-NH2) | 0.16 | 149 | 0.529 | 14.5 | 0.0748
CC[C@H](C)[C@H](NC(=O)[C@H](Cc1ccccc1)NC(=O)[C@H](C)NC(=O)[C@](C)(CCCCN)NC(=O)[C@H](CCC(N)=O)NC(=O)[C@H](C)NC(=O)[C@H](CCCCNC(=O)COCCOCCNC(=O)COCCOCCNC(=O)CC[C@H](NC(=O)CCCCCCCCCCCCCCCCCCC(=O)O)C(=O)O)NC(=O)[C@H](CCC(=O)O)NC(=O)[C@H](CC(=O)O)NC(=O)[C@H](CC(C)C)NC(=O)[C@](C)(CC(C)C)NC(=O)[C@@H](NC(=O)[C@H](CO)NC(=O)[C@H](Cc1ccc(O)cc1)NC(=O)[C@H](CC(=O)O)NC(=O)[C@H](CO)NC(=O)[C@@H](NC(=O)[C@H](Cc1ccccc1)NC(=O)[C@@H](NC(=O)CNC(=O)[C@H](CCC(=O)O)NC(=O)C(C)(C)NC(=O)[C@@H](N)Cc1ccc(O)cc1)[C@@H](C)O)[C@@H](C)O)[C@@H](C)CC)C(=O)N[C@@H](CCC(=O)O)C(=O)N[C@@H](Cc1ccc(O)cc1)C(=O)N[C@@H](CC(C)C)C(=O)N[C@@H](CC(C)C)C(=O)N[C@@H](CCC(=O)O)C(=O)NC(C)(C)C(=O)NCC(=O)N1CCC[C@H]1C(=O)N[C@@H](CO)C(=O)N[C@@H](CO)C(=O)NCC(=O)N[C@@H](C)C(=O)N1CCC[C@H]1C(=O)N1CCC[C@H]1C(=O)N1CCC[C@H]1C(=O)N[C@@H](CO)C(N)=O [Example 22] (H-Y[Aib]EGTFTSDYSI[αMeL]LDEK([AEEA-AEEA-γGlu-C20 diacid])AQ[αMeK]AFIEYLLE[Aib]GPSSGAPPPS-NH2; N-terminus assumed) | 0.206 | 53.4 | 0.624 | 23.1 | 0.0842
CC[C@H](C)[C@H](NC(=O)[C@H](CCCCN)NC(=O)[C@H](CC(=O)O)NC(=O)[C@H](CC(C)C)NC(=O)[C@H](CC(C)C)NC(=O)[C@@H](NC(=O)[C@H](CO)NC(=O)[C@H](CCCCNC(=O)COCCOCCNC(=O)COCCOCCNC(=O)CC[C@H](NC(=O)CCCCCCCCCCCCCCCCCCC(=O)O)C(=O)O)NC(=O)[C@H](CC(=O)O)NC(=O)[C@H](CO)NC(=O)[C@@H](NC(=O)[C@H](Cc1ccccc1)NC(=O)[C@@H](NC(=O)CNC(=O)[C@H](CCC(=O)O)NC(=O)C(C)(C)NC(=O)[C@@H](N)Cc1ccc(O)cc1)[C@@H](C)O)[C@@H](C)O)[C@@H](C)CC)C(=O)N[C@@H](C)C(=O)N[C@@H](CCC(N)=O)C(=O)NC(C)(C)C(=O)N[C@@H](C)C(=O)N[C@@H](Cc1ccccc1)C(=O)N[C@H](C(=O)N[C@@H](CCC(=O)O)C(=O)N[C@@H](Cc1ccc(O)cc1)C(=O)N[C@@H](CC(C)C)C(=O)N[C@H](C(=O)N[C@@H](CCC(=O)O)C(=O)NCC(=O)NCC(=O)N1CCC[C@H]1C(=O)N[C@@H](CO)C(=O)N[C@@H](CO)C(=O)NCC(=O)N[C@@H](C)C(=O)N1CCC[C@H]1C(=O)N1CCC[C@H]1C(=O)N1CCC[C@H]1C(=O)N[C@@H](CO)C(N)=O)[C@@H](C)CC)[C@@H](C)CC [Example 23] (H-Y[Aib]EGTFTSDK([AEEA-AEEA-γGlu-C20 diacid])SILLDKIAQ[Aib]AFIEYLIEGGPSSGAPPPS-NH2) | 0.19 | > 1010 | 0.258 | 6.32 | 0.204
CC[C@H](C)[C@H](NC(=O)[C@H](CCCCN)NC(=O)[C@H](CC(=O)O)NC(=O)[C@H](CC(C)C)NC(=O)[C@H](CC(C)C)NC(=O)[C@@H](NC(=O)[C@H](CCCCNC(=O)COCCOCCNC(=O)COCCOCCNC(=O)CC[C@H](NC(=O)CCCCCCCCCCCCCCCCCCC(=O)O)C(=O)O)NC(=O)[C@H](Cc1ccc(O)cc1)NC(=O)[C@H](CC(=O)O)NC(=O)[C@H](CO)NC(=O)[C@@H](NC(=O)[C@H](Cc1ccccc1)NC(=O)[C@@H](NC(=O)CNC(=O)[C@H](CCC(=O)O)NC(=O)C(C)(C)NC(=O)[C@@H](N)Cc1ccc(O)cc1)[C@@H](C)O)[C@@H](C)O)[C@@H](C)CC)C(=O)N[C@@H](C)C(=O)N[C@@H](CCC(N)=O)C(=O)NC(C)(C)C(=O)N[C@@H](C)C(=O)N[C@@H](Cc1ccccc1)C(=O)N[C@H](C(=O)N[C@@H](CCC(=O)O)C(=O)N[C@@H](Cc1ccc(O)cc1)C(=O)N[C@@H](CC(C)C)C(=O)N[C@H](C(=O)N[C@@H](CCC(=O)O)C(=O)NCC(=O)NCC(=O)N1CCC[C@H]1C(=O)N[C@@H](CO)C(=O)N[C@@H](CO)C(=O)NCC(=O)N[C@@H](C)C(=O)N1CCC[C@H]1C(=O)N1CCC[C@H]1C(=O)N1CCC[C@H]1C(=O)N[C@@H](CO)C(N)=O)[C@@H](C)CC)[C@@H](C)CC [Example 24] (H-Y[Aib]EGTFTSDYK([AEEA-AEEA-γGlu-C20 diacid])ILLDKIAQ[Aib]AFIEYLIEGGPSSGAPPPS-NH2) | 13 | 49.8 | 0.232 | 5.04 | 0.762
CC[C@H](C)[C@H](NC(=O)[C@H](CCCCN)NC(=O)[C@H](CC(=O)O)NC(=O)[C@H](CC(C)C)NC(=O)[C@H](CC(C)C)NC(=O)[C@H](CCCCNC(=O)COCCOCCNC(=O)COCCOCCNC(=O)CC[C@H](NC(=O)CCCCCCCCCCCCCCCCCCC(=O)O)C(=O)O)NC(=O)[C@H](CO)NC(=O)[C@H](Cc1ccc(O)cc1)NC(=O)[C@H](CC(=O)O)NC(=O)[C@H](CO)NC(=O)[C@@H](NC(=O)[C@H](Cc1ccccc1)NC(=O)[C@@H](NC(=O)CNC(=O)[C@H](CCC(=O)O)NC(=O)C(C)(C)NC(=O)[C@@H](N)Cc1ccc(O)cc1)[C@@H](C)O)[C@@H](C)O)C(=O)N[C@@H](C)C(=O)N[C@@H](CCC(N)=O)C(=O)NC(C)(C)C(=O)N[C@@H](C)C(=O)N[C@@H](Cc1ccccc1)C(=O)N[C@H](C(=O)N[C@@H](CCC(=O)O)C(=O)N[C@@H](Cc1ccc(O)cc1)C(=O)N[C@@H](CC(C)C)C(=O)N[C@H](C(=O)N[C@@H](CCC(=O)O)C(=O)NCC(=O)NCC(=O)N1CCC[C@H]1C(=O)N[C@@H](CO)C(=O)N[C@@H](CO)C(=O)NCC(=O)N[C@@H](C)C(=O)N1CCC[C@H]1C(=O)N1CCC[C@H]1C(=O)N1CCC[C@H]1C(=O)N[C@@H](CO)C(N)=O)[C@@H](C)CC)[C@@H](C)CC [Example 25] (H-Y[Aib]EGTFTSDYSK([AEEA-AEEA-γGlu-C20 diacid])LLDKIAQ[Aib]AFIEYLIEGGPSSGAPPPS-NH2) | 0.356 | 81.1 | 0.179 | 4.8 | 0.23
